From patent publication US20190216761A1, “COMPOSITIONS COMPRISING 15-HEPE AND METHODS OF USING THE SAME” (Afimmune Limited, priority 2015, published 2019)
Numbering of substitutions follows the chain as printed. Marks after values point to notes of the source that are not given here.

How the values were obtained:
Experiment in all cases: PPAR agonist reporter assay (Gal4 hybrid receptor, luciferase)
rPPARδ = format: cell-based, rat
Procedure: (§1) This study utilized proprietary reporter cells expressing a hybrid receptor comprising the N-terminal Gal4 DNA binding domain fused to the ligand binding domain of the specific human nuclear receptor (hPPARα, hPPARδ, and hPPARγ) and rat nuclear receptor (rPPARα, rPPARδ, and rPPARγ). The reporter vectors used in this Example comprise the firefly luciferase gene functionally linked to the Gal4 upstream activation sequence.
(§2) Nuclear Receptor assay was performed by dispensing 100 μL of a suspension of Reporter Cells in Cell Recovery Medium (CRM) containing 10% charcoal stripped FBS into each well of a white 96-well plate. Test compounds were diluted using compound screening medium (CSM) containing 10% charcoal stripped FBS to generate “2×-concentration” treatment media. Immediately after this dilution step, 100 μL of each diluted 2×-concentration treatment medium was dispensed (in triplicate) into the Reporter Cell-containing assay wells.
(§3) After incubation at 37° C. for 24 hours, the treatment media was discarded. 100 μL of Luciferase Detection Reagent substrate was added to each well and RLUs were quantified from each well to determine nuclear receptor activities.

rPPARγ = biological target: T1, rPPARγ (Rattus norvegicus, UniProt O88275); format: cell-based
T1 construct: expressed in transfected cells
T1 sequence (O88275 238-503 limits assumed): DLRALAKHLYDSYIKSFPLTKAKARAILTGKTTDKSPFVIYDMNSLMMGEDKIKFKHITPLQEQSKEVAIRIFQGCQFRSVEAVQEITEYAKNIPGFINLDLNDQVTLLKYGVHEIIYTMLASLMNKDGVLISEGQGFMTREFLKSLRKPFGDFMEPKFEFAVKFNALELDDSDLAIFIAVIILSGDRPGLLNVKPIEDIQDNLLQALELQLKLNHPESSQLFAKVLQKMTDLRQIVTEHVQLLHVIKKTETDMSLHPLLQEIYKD
Procedure: as §1, §2, §3

hPPARα = biological target: T2, hPPARα (Homo sapiens, UniProt Q07869); format: cell-based
T2 construct: expressed in transfected cells
T2 sequence (Q07869 239-466 limits assumed): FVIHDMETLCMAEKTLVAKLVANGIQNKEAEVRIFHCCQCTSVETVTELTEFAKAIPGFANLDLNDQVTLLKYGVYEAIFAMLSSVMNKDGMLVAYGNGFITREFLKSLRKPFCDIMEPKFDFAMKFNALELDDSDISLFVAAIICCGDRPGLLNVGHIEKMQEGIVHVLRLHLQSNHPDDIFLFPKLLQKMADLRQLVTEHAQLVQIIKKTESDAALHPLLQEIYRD
Procedure: as §1, §2, §3

hPPARδ = biological target: T3, hPPARδ (Homo sapiens, UniProt Q03181); format: cell-based
T3 construct: expressed in transfected cells
T3 sequence (Q03181 211-439 limits assumed): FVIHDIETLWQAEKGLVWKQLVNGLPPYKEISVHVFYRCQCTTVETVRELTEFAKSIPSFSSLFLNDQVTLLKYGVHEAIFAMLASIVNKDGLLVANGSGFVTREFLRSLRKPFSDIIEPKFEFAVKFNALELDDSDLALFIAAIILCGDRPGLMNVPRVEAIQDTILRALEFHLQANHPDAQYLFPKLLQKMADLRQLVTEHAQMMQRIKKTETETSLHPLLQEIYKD
Procedure: as §1, §2, §3

rPPARα = biological target: T4, rPPARα (Rattus norvegicus, UniProt P37230); format: cell-based
T4 construct: expressed in transfected cells
T4 sequence (P37230 239-466 limits assumed): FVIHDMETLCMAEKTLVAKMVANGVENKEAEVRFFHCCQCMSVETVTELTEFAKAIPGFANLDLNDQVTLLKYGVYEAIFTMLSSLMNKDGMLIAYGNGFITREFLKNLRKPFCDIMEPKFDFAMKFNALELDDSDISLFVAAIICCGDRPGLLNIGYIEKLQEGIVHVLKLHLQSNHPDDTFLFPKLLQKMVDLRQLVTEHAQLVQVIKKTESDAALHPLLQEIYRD
Procedure: as §1, §2, §3

hPPARγ = biological target: T5, hPPARγ (Homo sapiens, UniProt P37231); format: cell-based
T5 construct: expressed in transfected cells
T5 sequence (P37231 238-503 limits assumed): T1 sequence (O88275 238-503 limits assumed) with N93S, I98V, V226L, H245Q
Procedure: as §1, §2, §3

[1] = at medium to higher doses in the dose response curve
[2] = at low to higher doses in the dose response curve

Fold-Activation (vs. 0.10% DMSO) rPPAR-δ (rPPARδ; 137 nM): 1.3 fold | Fold-Activation (vs. 0.10% DMSO) rPPAR-δ (rPPARδ; 412 nM): 1.5 fold | Fold-Activation (vs. 0.10% DMSO) rPPAR-δ (rPPARδ; 1,235 nM): 1.6 fold | Fold-Activation (vs. 0.10% DMSO) rPPAR-δ (rPPARδ; 3,704 nM): 1.8 fold | Fold-Activation (vs. 0.10% DMSO) rPPAR-δ (rPPARδ; 11,111 nM): 2.4* fold | Fold-Activation (vs. 0.10% DMSO) rPPAR-δ (rPPARδ; 33,333 nM): 2.7* fold | Fold-Activation (vs. 0.10% DMSO) rPPAR-δ (rPPARδ; 100,000 nM): 7.2* fold | Fold-Activation (vs. 0.10% DMSO) rPPAR-δ (rPPARδ; 300,000 nM): 1.9 fold | agonism activity against rat PPARδ (in words) (rPPARδ; [1]): mild to moderate agonism activity | Fold-Activation (vs. 0.10% DMSO) rPPAR-γ (rPPARγ; 137 nM): 1.2 fold | Fold-Activation (vs. 0.10% DMSO) rPPAR-γ (rPPARγ; 412 nM): 1.2 fold | Fold-Activation (vs. 0.10% DMSO) rPPAR-γ (rPPARγ; 1,235 nM): 1.4 fold | Fold-Activation (vs. 0.10% DMSO) rPPAR-γ (rPPARγ; 3,704 nM): 1.4 fold | Fold-Activation (vs. 0.10% DMSO) rPPAR-γ (rPPARγ; 11,111 nM): 1.8 fold | Fold-Activation (vs. 0.10% DMSO) rPPAR-γ (rPPARγ; 33,333 nM): 3.5* fold | Fold-Activation (vs. 0.10% DMSO) rPPAR-γ (rPPARγ; 100,000 nM): 10* fold | Fold-Activation (vs. 0.10% DMSO) rPPAR-γ (rPPARγ; 300,000 nM): 14* fold | agonism activity against rat PPARγ (in words) (rPPARγ; [1]): mild to moderate agonism activity | Fold-Activation (vs. 0.10% DMSO) hPPAR-α (hPPARα; 137 nM): 0.90 fold | Fold-Activation (vs. 0.10% DMSO) hPPAR-α (hPPARα; 412 nM): 1.1 fold | Fold-Activation (vs. 0.10% DMSO) hPPAR-α (hPPARα; 1,235 nM): 1.1 fold | Fold-Activation (vs. 0.10% DMSO) hPPAR-α (hPPARα; 3,704 nM): 2.1* fold | Fold-Activation (vs. 0.10% DMSO) hPPAR-α (hPPARα; 11,111 nM): 4.2* fold | Fold-Activation (vs. 0.10% DMSO) hPPAR-α (hPPARα; 33,333 nM): 6.8* fold | Fold-Activation (vs. 0.10% DMSO) hPPAR-α (hPPARα; 100,000 nM): 5.0* fold | Fold-Activation (vs. 0.10% DMSO) hPPAR-α (hPPARα; 300,000 nM): 0.98 fold | agonism activity against human PPARα (in words) (hPPARα; [2]): moderate agonism activity | Fold-Activation (vs. 0.10% DMSO) hPPAR-δ (hPPARδ; 137 nM): 1.4 fold | Fold-Activation (vs. 0.10% DMSO) hPPAR-δ (hPPARδ; 412 nM): 2.1* fold | Fold-Activation (vs. 0.10% DMSO) hPPAR-δ (hPPARδ; 1,235 nM): 2.1* fold | Fold-Activation (vs. 0.10% DMSO) hPPAR-δ (hPPARδ; 3,704 nM): 2.4* fold | Fold-Activation (vs. 0.10% DMSO) hPPAR-δ (hPPARδ; 11,111 nM): 5.6* fold | Fold-Activation (vs. 0.10% DMSO) hPPAR-δ (hPPARδ; 33,333 nM): 4.1* fold | Fold-Activation (vs. 0.10% DMSO) hPPAR-δ (hPPARδ; 100,000 nM): 8.0* fold | Fold-Activation (vs. 0.10% DMSO) hPPAR-δ (hPPARδ; 300,000 nM): 0.073 fold | agonism activity against human PPARδ (in words) (hPPARδ; [2]): moderate agonism activity | Fold-Activation (vs. 0.10% DMSO) rPPAR-α (rPPARα; 137 nM): 1.1 fold | Fold-Activation (vs. 0.10% DMSO) rPPAR-α (rPPARα; 412 nM): 1.2 fold | Fold-Activation (vs. 0.10% DMSO) rPPAR-α (rPPARα; 1,235 nM): 1.2 fold | Fold-Activation (vs. 0.10% DMSO) rPPAR-α (rPPARα; 3,704 nM): 1.4 fold | Fold-Activation (vs. 0.10% DMSO) rPPAR-α (rPPARα; 11,111 nM): 1.7 fold | Fold-Activation (vs. 0.10% DMSO) rPPAR-α (rPPARα; 33,333 nM): 2.6* fold | Fold-Activation (vs. 0.10% DMSO) rPPAR-α (rPPARα; 100,000 nM): 1.4 fold | Fold-Activation (vs. 0.10% DMSO) rPPAR-α (rPPARα; 300,000 nM): 0.068 fold | agonism activity against rat PPARα (in words) (rPPARα; [1]): mild to moderate agonism activity | Fold-Activation (vs. 0.10% DMSO) hPPAR-γ (hPPARγ; 137 nM): 1.0 fold | Fold-Activation (vs. 0.10% DMSO) hPPAR-γ (hPPARγ; 412 nM): 1.1 fold | Fold-Activation (vs. 0.10% DMSO) hPPAR-γ (hPPARγ; 1,235 nM): 1.3 fold | Fold-Activation (vs. 0.10% DMSO) hPPAR-γ (hPPARγ; 3,704 nM): 1.5 fold | Fold-Activation (vs. 0.10% DMSO) hPPAR-γ (hPPARγ; 11,111 nM): 2.1* fold | Fold-Activation (vs. 0.10% DMSO) hPPAR-γ (hPPARγ; 33,333 nM): 3.6* fold | Fold-Activation (vs. 0.10% DMSO) hPPAR-γ (hPPARγ; 100,000 nM): 6.1* fold | Fold-Activation (vs. 0.10% DMSO) hPPAR-γ (hPPARγ; 300,000 nM): 0.027 fold | agonism activity against human PPARγ (in words) (hPPARγ; [2]): moderate agonism activity
SMILES: CC/C=C\C[C@H](O)/C=C/C=C\C/C=C\C/C=C\CCCC(=O)OCC [15-HEPE-EE, 15-HEPE ethyl ester]
